# From PubChem BioAssay AID1845194 (Molecular Pharmacology Branch, DTP, NCI, 2023)
# System: 287954-098-R-J1 tumor spheroid viability
# Assay: Anticancer human tumor 287954-098-R-J1 patient-derived Ewing sarcoma cell line growth inhibition
# Details: spheroids with HUVEC and MSC; for viability, T/C: stronger effect = lower value
# Method in brief: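 Complex spheroids of malignant cells with endothelial cells and mesenchymal stem cells; agents alone or combined, from near clinical Cmax (or 10 microM if unknown) down in half-log steps, 0.25% DMSO final.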
# [1] = curve of first compound, second compound 0.003 µM
# [2] = curve of first compound, second compound 0.00949 µM
# [3] = curve of first compound, second compound 0.03 µM
# [4] = curve of first compound, second compound 0.0949 µM
# [5] = curve of first compound, second compound 0.3 µM
# [6] = second compound 0.003 µM, first compound 0.0316 µM
# [7] = second compound 0.003 µM, first compound 0.1 µM
# [8] = second compound 0.003 µM, first compound 0.316 µM
# [9] = second compound 0.003 µM, first compound 1 µM
# [10] = second compound 0.003 µM, first compound 3.16 µM
# [11] = second compound 0.003 µM, first compound 10 µM
# [12] = second compound 0.00949 µM, first compound 0.0316 µM
# [13] = second compound 0.00949 µM, first compound 0.1 µM
# [14] = second compound 0.00949 µM, first compound 0.316 µM
# [15] = second compound 0.00949 µM, first compound 1 µM
# [16] = second compound 0.00949 µM, first compound 3.16 µM
# [17] = second compound 0.00949 µM, first compound 10 µM
# [18] = second compound 0.03 µM, first compound 0.0316 µM
# [19] = second compound 0.03 µM, first compound 0.1 µM
# [20] = second compound 0.03 µM, first compound 0.316 µM
# [21] = second compound 0.03 µM, first compound 1 µM
# [22] = second compound 0.03 µM, first compound 3.16 µM
# [23] = second compound 0.03 µM, first compound 10 µM
# [24] = second compound 0.0949 µM, first compound 0.0316 µM
# [25] = second compound 0.0949 µM, first compound 0.1 µM
# [26] = second compound 0.0949 µM, first compound 0.316 µM
# [27] = second compound 0.0949 µM, first compound 1 µM
# [28] = second compound 0.0949 µM, first compound 3.16 µM
# [29] = second compound 0.0949 µM, first compound 10 µM
# [30] = second compound 0.3 µM, first compound 0.0316 µM
# [31] = second compound 0.3 µM, first compound 0.1 µM
# [32] = second compound 0.3 µM, first compound 0.316 µM
# [33] = second compound 0.3 µM, first compound 1 µM
# [34] = second compound 0.3 µM, first compound 3.16 µM
# [35] = second compound 0.3 µM, first compound 10 µM
# 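Further: spheroids exposed to compound for 7 days before viability readout.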
# 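Wherever viability, T/C is given: luminescent signal taken as surrogate of viable cell content; 100% = DMSO vehicle control viability and lower means growth inhibition.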
compound,measurement,setting,value
Cc1sc2c(c1C)C(c1ccc(Cl)cc1)=NC(CC(=O)Nc1ccc(O)cc1)c1nnc(C)n1-2 (configuration not stated) + COc1cc2c(cc1O)CCNC21CSC2c3c(OC(C)=O)c(C)c4c(c3C(COC1=O)N1C(O)C3Cc5cc(C)c(OC)c(O)c5C(C21)N3C)OCO4,IC50,"curve of first compound, second compound 30 pM",529 nM
same,IC50,"curve of first compound, second compound 94.9 pM",428 nM
same,IC50,"curve of first compound, second compound 0.0003 µM",77.3 nM
same,IC50,"curve of first compound, second compound 0.000949 µM",< 9.49 nM
same,IC50,[1],< 9.49 nM
same,"viability, T/C","second compound 30 pM, first compound 0.00949 µM",110%
same,"viability, T/C","second compound 30 pM, first compound 0.03 µM",120%
same,"viability, T/C","second compound 30 pM, first compound 0.0949 µM",111%
same,"viability, T/C","second compound 30 pM, first compound 0.3 µM",97.2%
same,"viability, T/C","second compound 30 pM, first compound 0.949 µM",1.47%
same,"viability, T/C","second compound 30 pM, first compound 3 µM",1.05%
same,"viability, T/C","second compound 94.9 pM, first compound 0.00949 µM",109%
same,"viability, T/C","second compound 94.9 pM, first compound 0.03 µM",117%
same,"viability, T/C","second compound 94.9 pM, first compound 0.0949 µM",112%
same,"viability, T/C","second compound 94.9 pM, first compound 0.3 µM",65.4%
same,"viability, T/C","second compound 94.9 pM, first compound 0.949 µM",14.5%
same,"viability, T/C","second compound 94.9 pM, first compound 3 µM",1.03%
same,"viability, T/C","second compound 0.0003 µM, first compound 0.00949 µM",105%
same,"viability, T/C","second compound 0.0003 µM, first compound 0.03 µM",93.7%
same,"viability, T/C","second compound 0.0003 µM, first compound 0.0949 µM",39%
same,"viability, T/C","second compound 0.0003 µM, first compound 0.3 µM",12.4%
same,"viability, T/C","second compound 0.0003 µM, first compound 0.949 µM",0.78%
same,"viability, T/C","second compound 0.0003 µM, first compound 3 µM",0.57%
same,"viability, T/C","second compound 0.000949 µM, first compound 0.00949 µM",0.33%
same,"viability, T/C","second compound 0.000949 µM, first compound 0.03 µM",0.34%
same,"viability, T/C","second compound 0.000949 µM, first compound 0.0949 µM",0.25%
same,"viability, T/C","second compound 0.000949 µM, first compound 0.3 µM",0.07%
same,"viability, T/C","second compound 0.000949 µM, first compound 0.949 µM",0.03%
same,"viability, T/C","second compound 0.000949 µM, first compound 3 µM",0.11%
same,"viability, T/C","second compound 0.003 µM, first compound 0.00949 µM",0.17%
same,"viability, T/C","second compound 0.003 µM, first compound 0.03 µM",0.16%
same,"viability, T/C","second compound 0.003 µM, first compound 0.0949 µM",0.1%
same,"viability, T/C","second compound 0.003 µM, first compound 0.3 µM",0.11%
same,"viability, T/C","second compound 0.003 µM, first compound 0.949 µM",0.11%
same,"viability, T/C","second compound 0.003 µM, first compound 3 µM",0.19%
CC1COCCN1c1cc(-c2ccnn2C)c2ccnc(-c3ccn[nH]3)c2n1 (configuration not stated) + CC[C@@]1(O)C(=O)OCc2c1cc1n(c2=O)Cc2cc3c(CN(C)C)c(O)ccc3nc2-1,IC50,[1],45.5 nM
same,IC50,[2],< 31.6 nM
same,IC50,[3],< 31.6 nM
same,IC50,[4],< 31.6 nM
same,IC50,[5],< 31.6 nM
same,"viability, T/C",[6],66.4%
same,"viability, T/C",[7],14.3%
same,"viability, T/C",[8],7.1%
same,"viability, T/C",[9],2.65%
same,"viability, T/C",[10],1.92%
same,"viability, T/C",[11],2.07%
same,"viability, T/C",[12],3.62%
same,"viability, T/C",[13],1.68%
same,"viability, T/C",[14],2.2%
same,"viability, T/C",[15],1.74%
same,"viability, T/C",[16],1.4%
same,"viability, T/C",[17],2%
same,"viability, T/C",[18],1.73%
same,"viability, T/C",[19],1.36%
same,"viability, T/C",[20],1.38%
same,"viability, T/C",[21],0.71%
same,"viability, T/C",[22],1.17%
same,"viability, T/C",[23],1.55%
same,"viability, T/C",[24],1.53%
same,"viability, T/C",[25],1.31%
same,"viability, T/C",[26],1.28%
same,"viability, T/C",[27],0.9%
same,"viability, T/C",[28],0.77%
same,"viability, T/C",[29],1.08%
same,"viability, T/C",[30],1.62%
same,"viability, T/C",[31],1.43%
same,"viability, T/C",[32],1.23%
same,"viability, T/C",[33],0.85%
same,"viability, T/C",[34],0.69%
same,"viability, T/C",[35],0.67%
CC[C@@]1(O)C(=O)OCc2c1cc1n(c2=O)Cc2cc3c(CN(C)C)c(O)ccc3nc2-1,"viability, T/C",compound 0.003 µM,104% [middle of 10 runs]
same,"viability, T/C",compound 0.00949 µM,101% [middle of 10 runs]
same,"viability, T/C",compound 0.03 µM,15.2% [middle of 10 runs]
same,"viability, T/C",compound 0.0949 µM,1.9% [middle of 9 runs]
same,"viability, T/C",compound 0.3 µM,1.83% [middle of 10 runs]
same,IC50,"compound alone, run of 10/17/2019",19.4 nM [middle of 5 runs]
same,IC50,"compound alone, run of 10/25/2019",18.8 nM [middle of 4 runs]
COc1cc(C)[nH]c(=O)c1CN1CCc2c(Cl)cc(C(OC)C3COC3)c(Cl)c2C1=O (configuration not stated) + CC[C@@]1(O)C(=O)OCc2c1cc1n(c2=O)Cc2cc3c(CN(C)C)c(O)ccc3nc2-1,IC50,[1],> 10000 nM
same,IC50,[2],> 10000 nM
same,IC50,[3],117 nM
same,IC50,[4],< 31.6 nM
same,IC50,[5],< 31.6 nM
same,"viability, T/C",[6],94.9%
same,"viability, T/C",[7],94.7%
same,"viability, T/C",[8],99.9%
same,"viability, T/C",[9],95.5%
same,"viability, T/C",[10],88%
same,"viability, T/C",[11],93%
same,"viability, T/C",[12],108%
same,"viability, T/C",[13],99.6%
same,"viability, T/C",[14],92.3%
same,"viability, T/C",[15],89.1%
same,"viability, T/C",[16],95.1%
same,"viability, T/C",[17],92.8%
same,"viability, T/C",[18],63.6%
same,"viability, T/C",[19],36.6%
same,"viability, T/C",[20],50.9%
same,"viability, T/C",[21],36.4%
same,"viability, T/C",[22],28%
same,"viability, T/C",[23],2.56%
same,"viability, T/C",[24],1.65%
same,"viability, T/C",[25],1.55%
same,"viability, T/C",[26],1.34%
same,"viability, T/C",[27],1.37%
same,"viability, T/C",[28],1.24%
same,"viability, T/C",[29],1.63%
same,"viability, T/C",[30],1.38%
same,"viability, T/C",[31],1.47%
same,"viability, T/C",[32],1.35%
same,"viability, T/C",[33],1.69%
same,"viability, T/C",[34],1.33%
same,"viability, T/C",[35],1.57%
